Experiment [1] deals with T1, human toll like receptor 7 (hTLR7) (Homo sapiens, UniProt Q9NYK1).
T1 construct: host or cells: HEK293 (HEK-Blue hTLR7)
T1 sequence (Q9NYK1 27-1049): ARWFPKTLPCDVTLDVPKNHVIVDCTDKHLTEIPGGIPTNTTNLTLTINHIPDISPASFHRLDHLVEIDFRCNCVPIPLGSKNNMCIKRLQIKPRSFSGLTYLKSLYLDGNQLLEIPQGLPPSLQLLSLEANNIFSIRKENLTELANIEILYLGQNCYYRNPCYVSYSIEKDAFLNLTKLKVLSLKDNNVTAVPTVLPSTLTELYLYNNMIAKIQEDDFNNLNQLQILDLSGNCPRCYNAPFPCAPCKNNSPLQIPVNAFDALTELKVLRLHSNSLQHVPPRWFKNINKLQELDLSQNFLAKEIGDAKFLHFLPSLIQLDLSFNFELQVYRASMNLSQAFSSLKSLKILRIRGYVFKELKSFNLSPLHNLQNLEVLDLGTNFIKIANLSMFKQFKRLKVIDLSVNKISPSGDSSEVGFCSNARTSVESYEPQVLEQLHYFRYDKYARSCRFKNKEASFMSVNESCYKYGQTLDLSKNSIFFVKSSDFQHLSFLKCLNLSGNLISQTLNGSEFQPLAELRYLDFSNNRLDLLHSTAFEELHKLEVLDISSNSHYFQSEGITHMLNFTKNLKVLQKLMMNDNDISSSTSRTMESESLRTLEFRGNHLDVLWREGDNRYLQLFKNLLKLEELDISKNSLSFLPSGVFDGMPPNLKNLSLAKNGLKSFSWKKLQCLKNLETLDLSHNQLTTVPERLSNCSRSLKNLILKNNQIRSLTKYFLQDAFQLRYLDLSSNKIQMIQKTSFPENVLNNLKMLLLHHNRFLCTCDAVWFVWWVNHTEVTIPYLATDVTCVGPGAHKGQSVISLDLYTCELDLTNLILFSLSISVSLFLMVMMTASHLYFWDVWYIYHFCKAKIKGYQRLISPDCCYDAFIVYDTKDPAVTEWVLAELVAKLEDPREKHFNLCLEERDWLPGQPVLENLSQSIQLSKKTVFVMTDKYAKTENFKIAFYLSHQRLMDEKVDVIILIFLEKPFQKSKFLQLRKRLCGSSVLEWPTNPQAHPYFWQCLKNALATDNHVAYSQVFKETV
In words: hTLR7 in-vitro functional assay (HEK-Blue hTLR7 SEAP reporter). The experiment is classed as cell-based. Conditions: HEK-Blue hTLR7 cells, overnight incubation. From the text:
(§1) To determine the ability of test compounds to activate the human toll like receptor 7 (hTLR7) or human toll like receptor 8 (hTLR8), cell-based reporter systems were utilized. HEK293 cells stably overexpressing either hTLR7 or hTLR8 along with a reporter gene containing an optimized secreted embryonic alkaline phosphatase gene (SEAP), under the control of the IFN-b minimal promoter fused to five NF-kB and AP-1-binding sites, were obtained from Invivogen (HEK-Blue™ hTLR7, cat #Hkb-htlr7; HEK-Blue™ hTLR8, cat #Hkb-htlr8). Stimulation of hTLR7 or hTLR8 in these cells activates NF-kB and AP-1 and induces the production of SEAP which can be quantified using an alkaline phosphatase detection reagent.
(§2) On day one of the assay, compounds were prepared using 11-point half-log serial dilutions from a 10 mM DMSO stock solution and 50 nL was spotted into 384-well plates (PerkinElmer, cat #6007480). Positive and negative controls were also spotted within the assay plate and were used to determine percent effect during the analysis process. After resuspension in DMEM assay media containing FBS heat inactivated (10%), Glutamax (2 mM) and Penicillin/Streptomycin, 10,000 cells/20 ul/well were added to previously prepared compound plates. Plates were incubated overnight (16-20 hrs) at 37° C. in a 5% CO2 environment. Prewetted Microclime lids (Labcyte, LLS-0310) were used to prevent evaporation. On day two of the assay, QUANTI-Blue™ detection reagent was prepared by reconstituting QUANTI-Blue™ powder (InvivoGen, Rep-qb1) with 100 ml of sterile water and allowed to equilibrate to 37° C. for 15 minutes. 20 ul of QUANTI-Blue™ detection reagent was added to each well and plates were incubated at room temperature for 180 min. At the end of the incubation, plates were read on an Envision (Perkin Elmer) plate reader capturing absorbance at 650 nm.
(§3) Using Positive (tool compound) and Negative (DMSO) controls, the percent (%) effect was calculated for each sample using the following equation: […]
(§4) The % effect at each concentration of compound was calculated utilizing the ABase software suite (IBDS) and was relative to the amount of SEAP produced in the positive and negative control wells contained within each assay plate. The concentrations and % effect values for test compounds were fit using a 4-parameter logistic model in ABase and the concentration of compound that produced 50% response (EC50) was calculated.

For experiment [2], the target named is T2, human toll like receptor 8 (hTLR8) (Homo sapiens, UniProt Q9NR97).
T2 construct: host or cells: HEK293 (HEK-Blue hTLR8)
T2 sequence (Q9NR97 27-1041): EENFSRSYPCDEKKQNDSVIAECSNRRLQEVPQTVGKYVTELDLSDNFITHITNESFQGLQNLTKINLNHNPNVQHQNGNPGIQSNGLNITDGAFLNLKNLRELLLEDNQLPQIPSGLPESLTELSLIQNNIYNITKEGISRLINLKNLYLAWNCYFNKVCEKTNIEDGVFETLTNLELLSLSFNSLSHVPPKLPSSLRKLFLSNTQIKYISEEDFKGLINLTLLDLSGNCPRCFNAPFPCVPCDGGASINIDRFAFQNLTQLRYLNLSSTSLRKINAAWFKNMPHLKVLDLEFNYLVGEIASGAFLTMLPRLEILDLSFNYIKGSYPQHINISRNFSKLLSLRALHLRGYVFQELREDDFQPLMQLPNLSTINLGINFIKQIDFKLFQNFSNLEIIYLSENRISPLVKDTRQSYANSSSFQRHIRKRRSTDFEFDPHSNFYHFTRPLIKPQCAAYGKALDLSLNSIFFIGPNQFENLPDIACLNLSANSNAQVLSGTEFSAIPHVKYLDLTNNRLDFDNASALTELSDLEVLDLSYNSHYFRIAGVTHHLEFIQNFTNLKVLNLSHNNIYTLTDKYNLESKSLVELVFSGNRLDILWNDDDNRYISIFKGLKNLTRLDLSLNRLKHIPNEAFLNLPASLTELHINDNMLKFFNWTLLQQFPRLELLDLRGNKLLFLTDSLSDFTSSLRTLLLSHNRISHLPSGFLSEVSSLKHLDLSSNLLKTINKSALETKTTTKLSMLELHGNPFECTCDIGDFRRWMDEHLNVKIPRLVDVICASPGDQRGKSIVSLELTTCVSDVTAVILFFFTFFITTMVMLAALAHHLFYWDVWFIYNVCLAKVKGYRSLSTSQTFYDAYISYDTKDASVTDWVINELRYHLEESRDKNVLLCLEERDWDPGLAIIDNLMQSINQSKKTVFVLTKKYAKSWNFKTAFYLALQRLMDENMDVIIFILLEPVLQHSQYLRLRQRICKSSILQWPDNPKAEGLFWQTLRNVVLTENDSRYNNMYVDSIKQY
The experiment can be described thus: hTLR8 in-vitro functional assay (HEK-Blue hTLR8 SEAP reporter). The experiment is classed as cell-based. Conditions: HEK-Blue hTLR8 cells, overnight incubation.
Source text: as §1, §2, §3, §4

In general, EC50 refers to the concentration needed to bring the measured effect to its halfway point.

For `CCCCc1nc2c(N)nc3cc(CCCN4CCN(C(=O)CCOCCOCCOCCOCCNC(=O)O[C@H]5CC[C@@]6(C)C(=CC[C@H]7[C@@H]8CC[C@H]([C@H](C)CCCC(C)C)[C@@]8(C)CC[C@@H]76)C5)CC4)ccc3c2n1CC(C)(CO)CO` [Compound 12, (3beta,20R)-cholest-5-en-3-yl {15-[4-(3-{4-amino-2-butyl-1-[3-hydroxy-2-(hydroxymethyl)-2-methylpropyl]-1H-imidazo[4,5-c]quinolin-7-yl}propyl)piperazin-1-yl]-15-oxo-3,6,9,12-tetraoxapentadec-1-yl}carbamate], the EC50 in experiment [1] amounted to 210 nM; in experiment [2], 19.6 µM.

`CCCCc1nc2c(N)nc3cc(CCCN4CCN(C(=O)OCc5ccc(NC(=O)[C@H](CCCNC(N)=O)NC(=O)[C@@H](NC(=O)COCCOCCNC(=O)O[C@H]6CC[C@@]7(C)C(=CC[C@H]8[C@@H]9CC[C@H]([C@H](C)CCCC(C)C)[C@@]9(C)CC[C@@H]87)C6)C(C)C)cc5)CC4)ccc3c2n1CC(C)(CO)CO` [Compound 28, 4-((12S,15S)-1-(((3beta)-cholest-5-en-3-yl)oxy)-12-isopropyl-1,10,13-trioxo-15-(3-ureidopropyl)-5,8-dioxa-2,11,14-triazahexadecan-16-amido)benzyl 4-(3-(4-amino-2-butyl-1-(3-hydroxy-2-(hydroxymethyl)-2-methylpropyl)-1H-imidazo[4,5-c]quinolin-7-yl)propyl)piperazine-1-carboxylate]: the EC50 in experiment [1] worked out at 1890 nM; in experiment [2], 4.48 µM.

For the compound `CCCCc1nc2c(N)nc3cc(CCCN4CCN(C(=O)CCOCCOCCOCCOCCOCCOCCOCCOCCNC(=O)O[C@H]5CC[C@@]6(C)C(=CC[C@H]7[C@@H]8CC[C@H]([C@H](C)CCCC(C)C)[C@@]8(C)CC[C@@H]76)C5)CC4)ccc3c2n1CC(C)(CO)CO` [Compound 19, (20R)-cholest-5-en-3beta-yl {27-[4-(3-{4-amino-2-butyl-1-[3-hydroxy-2-(hydroxymethyl)-2-methylpropyl]-1H-imidazo[4,5-c]quinolin-7-yl}propyl)piperazin-1-yl]-27-oxo-3,6,9,12,15,18,21,24-octaoxaheptacosan-1-yl}carbamate], the EC50 is 362 nM in experiment [1] and 20.2 µM in experiment [2].

Regarding `CCOCc1nc2c(N)nc3cc(CCCN4CCN(C(=O)CCOCCOCCOCCOCCOCCOCCOCCOCCOCCOCCOCCOCCOCCOCCOCCOCCOCCOCCOCCOCCOCCOCCOCCOCCOCCOCCOCCOCCOCCOCCOCCOCCOCCOCCOCCOCCNC(=O)CCOCCOCCOCCOCCNC(=O)O[C@H]5CC[C@@]6(C)C(=CC[C@H]7[C@@H]8CC[C@H]([C@H](C)CCCC(C)C)[C@@]8(C)CC[C@@H]76)C5)CC4)ccc3c2n1CC(C)(CO)CO` [Compound 4, (3beta)-cholest-5-en-3-yl {127-[4-(3-{4-amino-2-(ethoxymethyl)-1-[3-hydroxy-2-(hydroxymethyl)-2-methylpropyl]-1H-imidazo[4,5-c]quinolin-7-yl}propyl)piperazin-1-yl]-15,127-dioxo-3,6,9,12,19,22,25,28,31,34,37,40,43,46,49,52,55,58,61,64,67,70,73,76,79,82,85,88,91,94,97,100,103,106,109,112,115,118,121,124-tetracontaoxa-16-azaheptacosahect-1-yl}carbamate], the EC50 in experiment [1] came out at 60 nM; in experiment [2], 1.75 µM.

Consider `CCCCc1nc2c(N)nc3cc(CCCN4CCN(Cc5ccc(NC(=O)[C@H](CCCNC(N)=O)NC(=O)[C@@H](NC(=O)COCCOCCNC(=O)O[C@H]6CC[C@@]7(C)C(=CC[C@H]8[C@@H]9CC[C@H]([C@H](C)CCCC(C)C)[C@@]9(C)CC[C@@H]87)C6)C(C)C)cc5)CC4)ccc3c2n1CC(C)(CO)CO` [Compound 29, (3beta)-cholest-5-en-3-yl ((6S,9S)-1-amino-6-((4-((4-(3-(4-amino-2-butyl-1-(3-hydroxy-2-(hydroxymethyl)-2-methylpropyl)-1H-imidazo[4,5-c]quinolin-7-yl)propyl)piperazin-1-yl)methyl)phenyl)carbamoyl)-9-isopropyl-1,8,11-trioxo-13,16-dioxa-2,7,10-triazaoctadecan-18-yl)carbamate], for which the EC50 in experiment [1] is 527 nM; in experiment [2], 5.03 µM.

Turning to `CCCCc1nc2c(N)nc3cc(CCCN4CCN(C(=O)CCOCCOCCOCCOCCOCCOCCOCCOCCOCCOCCOCCOCCOCCOCCOCCOCCOCCOCCOCCOCCOCCOCCOCCOCCOCCOCCOCCOCCOCCOCCOCCOCCOCCOCCOCCOCCNC(=O)CCOCCOCCOCCOCCNC(=O)O[C@H]5CC[C@@]6(C)C(=CC[C@H]7[C@@H]8CC[C@H]([C@H](C)CCCC(C)C)[C@@]8(C)CC[C@@H]76)C5)CC4)ccc3c2n1CC(C)(CO)CO` [Compound 3, (3beta)-cholest-5-en-3-yl {127-[4-(3-{4-amino-2-butyl-1-[3-hydroxy-2-(hydroxymethyl)-2-methylpropyl]-1H-imidazo[4,5-c]quinolin-7-yl}propyl)piperazin-1-yl]-15,127-dioxo-3,6,9,12,19,22,25,28,31,34,37,40,43,46,49,52,55,58,61,64,67,70,73,76,79,82,85,88,91,94,97,100,103,106,109,112,115,118,121,124-tetracontaoxa-16-azaheptacosahect-1-yl}carbamate], the EC50 was 53 nM in experiment [1] and 0.339 µM in experiment [2].

(Values after patent US20250135006A1, “AMPHIPHILIC TLR7/8 ADJUVANTS AND USES THEREOF” (Pfizer Inc., priority 2023, published 2025).)
